Assay results as given in patent US20200253914A1, “NOVEL FORMULATIONS” (priority 2015, published 2020).
Like-named read-outs stand apart in the source and are kept apart here.

Tests used:
[1] = BPO chemical stability in wash formulations and shelf life prediction; type: physicochemical; details: increasing sorbitol concentrations in wash formulations
Experimental: BPO stability in the formulations of the present invention were assessed over time at 25° C./60% RH and 30° C./65% RH using environmentally controlled chambers. Specifically formulations containing 2.5% BPO or 10% BPO in glass vials were placed on stability, and monitored for BPO degradation.
Chemical stability of the BPO in surfactant based wash products is a challenge due to increased solubility of the BPO in these systems.

HaCaT cells = assay: HaCaT cell viability assay for skin irritancy potential; type: cell-based
Experimental: Irritancy potential of the individual surfactants as well as formulation chassis (placebo formulations) were evaluated using an in house in vitro test. The method utilizes HaCaT cell viability as a marker for irritation.
Briefly, HaCaT cells were seeded in 96-well plates (Nunc 96 well plate, Cat #165305) at density of 2×10^4 cells per well, and grown overnight before treatments. Test articles were diluted in water to make 10% stock solutions, which were serially diluted in DMEM to twice to the final treatment concentrations. Cells were treated in triplicates by adding 100 μl of serially diluted test articles to each well containing 100 μl fresh medium. After incubation at 37° C., 5% CO2 for 10 minutes in the presence of diluted placebos, cells were then washed with 200 μl of DPBS with Ca^++ and Mg^++ (Life Technologies #14040133) for 3 times. CellTiter-Blue reagent (Promega, G8081, 10× stock solution) was diluted to 1× working solution in cell culture medium and added to cells (100 μl/well). Cells were incubated at 37° C., 5% CO2 for 60 minutes and the cell viability was measured using fluorescent activity (Ex. 560 nm, Em. 590 nm). All treated samples were normalized to the untreated control. Cell viabilities were then used to assess skin irritation potential.
Cell viability studies were conducted to assess the skin irritation of the formulations using Neutrogena Ultra Gentle Daily Cleanser and PanOxyl 10 (Placebo) as the comparators. The results are shown in FIG. 2 for the 2.5% BPO formulations and FIG. 3 for the 10% BPO formulations. Sodium Lauryl […] (SLS) was used as the positive control. […] All 6 formulations outperformed Neutrogena Ultra Gentle with formulation #3(2.5%) being more than 3 fold milder than Neutrogena Ultra Gentle cleanser. The 2.5% prototypes were slightly milder than the 10% formulations. This is expected due to higher concentration of the surfactants in the 10% formulations.

[2] = in water and propylene glycol, after 90 days of storage; cited from earlier work
[3] = HaCaT cell viability, 10 minutes treatment, left = mildest, SLS positive control

Row | Compound | rank order of screened surfactants for mildness, based on EC 50 values (HaCaT cells; [3]) | other results
1 | OC[C@@H](O)[C@@H](O)[C@H](O)[C@@H](O)CO [sorbitol, D-Sorbitol] | – | effect of humectant on BPO stability (benzoic acid generated) [1]: improve BPO stability
2 | Cocamidopropyl PG-Dimonium Chloride Phosphate [Cola Lipid C] | > SLS | –
3 | Sodium Hydroxyethylglycinate cocoglucoside crosspolymer and sodium bis-hydroxytethylglycinate lauryl glucoside crosspolymer [PolySuga Glycinate C] | – | rank order of screened surfactants for mildness, based on EC 50 values (HaCaT cells): > PolySuga Phos 1200P
4 | sodium C14-16 Olefin sulfonate [Colonial AOS] | > Cola Lipid C | –
5 | O=C(OOC(=O)c1ccccc1)c1ccccc1 [BPO, Benzoyl peroxide] | – | degradation of benzoyl peroxide in suspension (dispersed form) [2]: not degraded
6 | Sodium C14-C17 sec-alkyl sulfonate [Hostapur SAS 60] | SLS | –
7 | Sodium Laurylglucoside Hydroxypropylsufonate [Suganate 160 NC] | – | rank order of screened surfactants for mildness, based on EC 50 values (HaCaT cells): > Plantaren 2000 N UP
8 | CCCCCCCCCCO[C@@H]1O[C@H](CO)[C@@H](O)[C@H](O)[C@H]1O [Plantaren 2000 N UP, decyl glucoside] | > Colonial AOS | –
